# Results published in ChEMBL document CHEMBL1124653, “11 beta-nitrate estrane analogues: potent estrogens” (1989).
# Molecular target: Estrogen receptor (Rattus norvegicus) (UniProt P06211+Q62986)
# Test: Estrogenic potency in rats by subcutaneous dose relative to estradiol
# Format: functional
row,SMILES,Relative potency
1,CC(=O)Oc1ccc2c(c1)CC[C@H]1[C@@H]3CCC(=O)[C@@]3(C)C[C@H](O[N+](=O)[O-])[C@]21O,4
2,CC(=O)Oc1ccc2c(c1)C[C@@H](C)[C@@H]1[C@@H]2[C@@H](O[N+](=O)[O-])C[C@]2(C)C(=O)CC[C@@H]12 (stereo in doubt; 3b),7470
3,CC(=O)Oc1ccc2c(c1)C[C@@H](C)[C@@H]1[C@@H]2[C@@H](O[N+](=O)[O-])C[C@]2(C)C(=O)CC[C@@H]12 (stereo in doubt; 2b),34
